In general, IC50 refers to the concentration at which inhibition is half-maximal. By Kd is commonly meant the constant that tells how readily two partners part at equilibrium.

Drawing on patent US20230148450A9, “BICYCLIC HETEROARYL COMPOUNDS AND USES THEREOF” (Revolution Medicines, Inc., priority 2019, published 2023), this text covers IC50 and Kd for 18 compounds.

Read-outs that look alike come from different tables or passages of the source. Where only a bound is given, the exact number is not on record here.

The target in experiment [1] is T1, SOS1 nucleotide exchange of KRAS (catalytic domain of SOS1, residues 564-1049; wild-type KRAS) (Homo sapiens, UniProt Q07889).
T1 construct: tagless catalytic domain of SOS1 (residues 564-1049)
T1 sequence (Q07889 564-1049): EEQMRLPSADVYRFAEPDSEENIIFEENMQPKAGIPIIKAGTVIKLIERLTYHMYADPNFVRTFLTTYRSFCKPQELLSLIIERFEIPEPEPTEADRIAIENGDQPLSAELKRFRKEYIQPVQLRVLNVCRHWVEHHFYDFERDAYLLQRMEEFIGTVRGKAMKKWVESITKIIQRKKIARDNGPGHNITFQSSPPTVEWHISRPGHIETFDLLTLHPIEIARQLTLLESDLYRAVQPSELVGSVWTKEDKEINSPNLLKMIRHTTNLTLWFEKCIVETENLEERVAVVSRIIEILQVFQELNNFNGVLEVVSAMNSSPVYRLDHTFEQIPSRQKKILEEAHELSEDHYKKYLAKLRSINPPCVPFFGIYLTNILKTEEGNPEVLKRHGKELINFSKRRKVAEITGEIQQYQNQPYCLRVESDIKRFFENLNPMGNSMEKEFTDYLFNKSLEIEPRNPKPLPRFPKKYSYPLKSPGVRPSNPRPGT
Description: Mode of Action Assay: Inhibition of SOS1 Nucleotide Exchange Activity (TR-FRET). The note with it: TR-FRET signal. Format: biochemical. Here is the method:
The purpose of this assay was to characterize the inhibitory activity of compounds on SOS1 nucleotide exchange of KRAS. Data was reported as IC50 values based on the TR-FRET signal.
Note—the following protocol describes a procedure for monitoring the inhibition of SOS1 nucleotide exchange activity of wild-type KRAS in response to a compound of the invention. Other KRAS mutants and RAS isoforms maybe employed.
In assay buffer containing 20 mM HEPES, pH 7.5, 150 mM NaCl, 5 mM MgCl2, 0.05% Tween-20, 0.1% BSA, 1 mM DTT, concentration series of test compounds were generated spanning 100 μM to 1.7 nM over eleven 3-fold serial dilutions in a 384-well assay plate at a volume of 20 μL. The purified tagless catalytic domain of SOS1 (residues 564-1049) was first diluted in assay buffer at a concentration of 100 nM, and then 20 μL of the SOS1 containing solution was directly dispensed into compound plates. The SOS1/compound mixture was incubated at room temperature with constant mixing on an orbital shaker for 20 minutes to allow the reaction to reach equilibrium. A KRAS mixture was prepared by diluting 66.7 nM avi-tagged KRAS (residue 1-169), 3.33 nM Streptavidin-Tb and 333 nM EDA-GTP-DY-647P1 in assay buffer. This mixture was prepared immediately before addition to the SOS1/compound mixture to prevent intrinsic nucleotide exchange. Then 5 μL of the pre-incubated SOS1/compound mixture and 7.5 μL of the KRAS mixture were added sequentially in a 384-well low volume black round bottom plate and incubated at room temperature with constant shaking for 30 minutes. Time-resolved fluorescence was measured on a PerkinElmer Envision plate reader. DMSO and 10 μM of compound (i) were used as negative and positive controls, respectively.
Three replicates were performed for each compound. Data were normalized by the following: (Positive control—Sample signal)/(Positive control—negative control)*100. The data were fit using a four-parameter logistic fit.
(In general: In TR-FRET formats the signal depends on donor and acceptor labels being close together.)

For experiment [2], the target named is T2, SOS1 catalytic domain (residues 564-1049) (Homo sapiens, UniProt Q07889).
T2 construct: SOS1 catalytic domain (residues 564-1049) immobilized on a sensor chip
T2 sequence (Q07889 564-1049): T1 sequence (Q07889 564-1049)
Description: Binding affinity to SOS1 using Surface Plasmon Resonance (SPR). The note with it: avi-tagged SOS1 catalytic domain immobilized on sensor chip; read-out: SOS1 SPR Equilibrium Kd. From the text:
Potency Assay: Measurement of the Binding Affinity of Compounds of the Invention to SOS! using Surface Plasmon Resonance (SPR)
The purpose of the SPR assay was to measure the direct binding of compounds to SOS1 catalytic domain (residues 564-1049) immobilized on a sensor chip. Data was reported as equilibrium dissociation constant (Kd) values.
Using a GE Biacore 8K SPR instrument, avi-tagged SOS1 catalytic domain protein was immobilized to a level of approximately 6000 response units (RU) on a streptavidin-coated SPR sensor chip in assay buffer containing 0.01 M HEPES, 0.15 M NaCl and 0.05% v/v Surfactant P20. In assay buffer containing 2% DMSO, concentration series of test compounds were generated spanning 5 μM to 4.9 nM over ten 2-fold dilutions. For each test compound, a separate 0 μM sample was generated for use during subsequent double reference subtraction. Serially for each test compound, individual dilution samples were flowed over the immobilized SOS1 protein at a flow rate of 50 μL/minute to monitor the association with SOS1. Dissociation of bound test compound from the SOS1 protein was immediately monitored by flowing assay buffer over the sensor surface and monitoring the decrease in binding signal back to the baseline level seen in the absence of compound. This was repeated for all compound dilutions in each series. The binding level response for each test compound concentration was noted immediately prior to the end of the association phase, and a secondary plot generated showing binding response level versus test compound concentration generated for each compound dilution series.

Experiment [3] deals with cellular pERK in PC-9 cells (EGFR Ex19Del). In words: Potency Assay: pERK. Format: cell-based. The note with it: Homo sapiens, read-out: SOS1 pERK IC50. An excerpt: The purpose of this assay is to measure the ability of test compounds to inhibit SOS1 function in cells. SOS1 activates RAS proteins by catalyzing the conversion of […] to […] in response to receptor tyrosine kinase activation. Activation of RAS induces a sequence of cellular signaling events that results in increased phosphorylation of ERK at […] (pERK). The procedure described below measures the level of cellular pERK in response to test compounds in PC-9 cells (EGFR Ex[…]). PC-9 cells were grown and maintained using media and procedures recommended by the ATCC. On the day prior to compound addition, cells were plated in 384-well cell culture plates (40 μL/well) and grown overnight in a 37° C., 5% CO2 incubator. Test compounds were prepared in 10, 3-fold dilutions in DMSO, with a top concentration of 10 mM. On the day of the assay, 40 nL of test compound was added to each well of cell culture plate using an Echo550 liquid handler (LabCyte). Concentrations of test compound were tested in duplicate with highest test concentration being 10 μM. After compound addition, cells were incubated for 1 hour at 37° C., 5% CO2. Following incubation, culture medium was removed and cells were washed once with phosphate buffered saline. Cellular pERK level was determined using the AlphaLISA SureFire Ultra p-ERK1/2 Assay Kit (PerkinElmer). Cells were lysed in 25 μL lysis buffer, with shaking at 600 RPM at room temperature for 15 minutes. Lysate (10 μL) was transferred to a 384-well Opti-plate (PerkinElmer) and 5 μL acceptor mix was added. The plate was centrifuged at 1000 RPM for 1 minute, and incubated in the dark for 2 hours. Following this incubation, 5 μL of donor mix was added, the plate was sealed and centrifuged at 1000 RPM for 1 minute, and the mixture was incubated for 2 hours at room temperature. Signal was read on an Envision plate reader (PerkinElmer) using standard AlphaLISA settings. Analysis of raw data was carried out in Excel (Microsoft) and Prism (GraphPad). Signal was plotted vs. the decadal logarithm of compound concentration, and IC50 was determined by fitting a 4-parameter sigmoidal concentration response model.

Setting [4] is: PC-9 cells (EGFR Ex19Del), 1 hour incubation, AlphaLISA p-ERK1/2.

As for `C[C@@H](Nc1nccc2nc(C(=O)N3CC4(CN(CC(F)(F)F)C4)C3)cn12)c1cccc(C(F)F)c1F` [Example 91], the IC50 in experiment [1] and in experiment [3] (setting [4]) was less than 1 µM each time. The Kd in experiment [2] is not above 0.4 µM.

Take `C[C@@H](Nc1ncnc2[nH]c(C(=O)N3CCOCC3)nc12)c1cc(N)cc(C(F)(F)F)c1` [Example 57, N-[(1R)-1-[3-amino-5-(trifluoromethyl)phenyl]ethyl]-8-(morpholine-4-carbonyl)-9H-purin-6-amine]: the IC50 in experiment [1] and in experiment [3] (setting [4]) was less than 1 µM in each case. For the same compound, the Kd in experiment [2] is not above 0.4 µM.

Consider `C[C@@H](Nc1nc(Cl)cn2cc(C(=O)N3CCOCC3)cc12)c1cc(N)cc(C(F)(F)F)c1` [Example 102, N-[(1R)-1-[3-amino-5-(trifluoromethyl)phenyl]ethyl]-3-chloro-7-(morpholine-4-carbonyl)pyrrolo [1,2-a]pyrazin-1-amine], for which the IC50 in experiment [1] and in experiment [3] (setting [4]) was more than 1 µM throughout.

Turning to `C[C@@H](Nc1nc(Cl)nn2cc(C(=O)N3CC4(CN(C)C4)C3)cc12)c1cccc(C(F)F)c1F` [Example 99], the IC50 in experiment [1] and in experiment [3] (setting [4]) was less than 1 µM throughout. The Kd in experiment [2] was not above 0.4 µM.

Turning to `COc1cc2c(N[C@H](C)c3cc(N)cc(C(F)(F)F)c3)nc(C)nn2c1` [Example 30, N-[(1R)-1-[3-amino-5-(trifluoromethyl)phenyl]ethyl]-6-methoxy-2-methyl-pyrrolo[2,1-f]-[1,2,4]triazin-4-amine], the Kd in experiment [2] is more than 0.4 µM. In addition, the IC50 in experiment [3] (setting [4]) is more than 1 µM.

For the compound `C[C@@H](Nc1ncnc2cc(C3=CCNCC3)sc12)c1cc(N)cc(C(F)(F)F)c1` [Example 49, N-[(1R)-1-[3-amino-5-(trifluoromethyl)phenyl]ethyl]-6-(1,2,3,6-tetrahydropyridin-4-yl)thieno[3,2-d]pyrimidin-4-amine], the IC50 in experiment [1] and in experiment [3] (setting [4]) was more than 1 µM each time.

As for `Cc1cn2nc(C(=O)N3CC4CCC(C3)N4C)cc2c(N[C@H](C)c2cc(N)cc(C(F)(F)F)c2)n1` [Example 78], the IC50 in experiment [1] and in experiment [3] (setting [4]) was less than 1 µM in each case.

Take `C[C@@H](Nc1nc(Cl)nn2cc(C(=O)N3CC4(COC4)C3)cc12)c1cccc(C(F)(F)F)c1` [Example 96]: the IC50 is more than 1 µM in experiment [1] and less than 1 µM in experiment [3] (setting [4]).

As for `C[C@@H](Nc1nc(Cl)nn2cc(C(=O)N3CCN(C)CC3)cc12)c1cccc(C(F)F)c1F` [Example 98], the concentration for half-maximal inhibition (IC50) in experiment [1] and in experiment [3] (setting [4]) was less than 1 µM each time.

With `C[C@@H](Nc1nc(Cl)nn2cc(C(=O)N3CCN(C)CC3)cc12)c1cc(N)cc(C(F)(F)F)c1` [Example 94, N-[(1R)-1-[3-amino-5-(trifluoromethyl)-phenyl]ethyl]-2-chloro-6-(4-methylpiperazine-1-carbonyl)pyrrolo[2,1-f][1,2,4]triazin-4-amine], the IC50 in experiment [1] and in experiment [3] (setting [4]) was less than 1 µM throughout.

As for `Cc1nc(N[C@H](C)c2cc(N)cc(C(F)(F)F)c2)c2cc([C@]3(O)CC[C@H](C(=O)N(C)C)CC3)cn2n1` [Example 66, 4-[4-[[(1R)-1-[3-amino-5-(trifluoromethyl)phenyl]ethyl]amino]-2-methyl-pyrrolo[2,1-f][1,2,4]triazin-6-yl]-4-hydroxy-N,N-dimethylcyclohexanecarboxamide], in experiment [2], the Kd is not above 0.4 µM. In addition, the IC50 in experiment [3] (setting [4]) was more than 1 µM.

Take `C[C@@H](Nc1nccc2sc(C3=CCNCC3)cc12)c1cc(N)cc(C(F)(F)F)c1` [Example 56, N-[(1R)-1-[3-amino-5-(trifluoromethyl)phenyl]ethyl]-2-(1,2,3,6-tetrahydropyridin-4-yl)thieno[3,2-c]pyridin-4-amine]: the IC50 in experiment [1] and in experiment [3] (setting [4]) was more than 1 µM in each case.

As for `C[C@@H](Nc1ncnc2c1cc(C1CCNCC1)n2C)c1cc(N)cc(C(F)(F)F)c1` [Example 38, N-[(1R)-1-[3-amino-5-(trifluoromethyl)phenyl]ethyl]-7-methyl-6-(4-piperidyl)pyrrolo[2,3-d]pyrimidin-4-amine], the IC50 in experiment [3] (setting [4]) is more than 1 µM.

As to `CNCc1cc2c(N[C@H](C)c3cc(N)cc(C(F)(F)F)c3)nc(C)nn2c1` [Example 28, N-[(1R)-1-[3-amino-5-(trifluoromethyl)phenyl]ethyl]-2-methyl-6-(methylaminomethyl)pyrrolo[2,1-f][1,2,4]triazin-4-amine], the Kd in experiment [2] was more than 0.4 µM. For the same compound, in experiment [3] (setting [4]), the IC50 was less than 1 µM.

Consider `C[C@@H](Nc1cc(Cl)nc2nc(C(=O)N3CCOCC3)cn12)c1cc(N)cc(C(F)(F)F)c1` [Example 48, [5-[[(1R)-1-[3-amino-5-(trifluoromethyl)phenyl]ethyl]amino]-7-chloro-imidazo[1,2-a]pyrimidin-2-yl]-morpholino-methanone], for which the Kd in experiment [2] is more than 0.4 µM. The IC50 in experiment [3] (PC-9, 1 h) is less than 1 µM.

Turning to `C[C@@H](Nc1nc(Cl)nn2cc(C(=O)N3CCN(C)CC3)cc12)c1cccc(C(F)(F)F)c1` [Example 95], the IC50 in experiment [1] and in experiment [3] (setting [4]) was more than 1 µM each time.

As to `C[C@@H](Nc1nc(Cl)nn2cc(C(=O)N3CCOCC3)cc12)c1cc(N)cc(C(F)(F)F)c1` [Example 68], in experiment [3] (setting [4]), the IC50 is less than 1 µM.

Turning to `Cc1cn2nc(C(=O)N3CCN(C)CC3)cc2c(N[C@H](C)c2cccc(C(F)(F)F)c2)n1` [Example 61], the IC50 in experiment [1] and in experiment [3] (setting [4]) was more than 1 µM throughout.
